The text below walks through data of patent US7732449B2, “Inhibitors of cathepsin S” (IRM LLC, priority 2003, dated 2010).

Like-named read-outs stand apart in the source and are kept apart here.

What all share (assay type): biochemical
For experiment [1], the target named is Cathepsin S (Homo sapiens, UniProt P25774). The experiment in a line: Cathepsin S inhibition, fluorogenic peptide substrate kinetic assay.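 Also: cleavage rate of a coumarin-labelled peptide substrate (50 µM) read as fluorescence increase at Ex 380 nm and Em 450 nm, relative to inhibitor-free control reactions.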
Sequence of Cathepsin S (P25774 115-331, species assumed): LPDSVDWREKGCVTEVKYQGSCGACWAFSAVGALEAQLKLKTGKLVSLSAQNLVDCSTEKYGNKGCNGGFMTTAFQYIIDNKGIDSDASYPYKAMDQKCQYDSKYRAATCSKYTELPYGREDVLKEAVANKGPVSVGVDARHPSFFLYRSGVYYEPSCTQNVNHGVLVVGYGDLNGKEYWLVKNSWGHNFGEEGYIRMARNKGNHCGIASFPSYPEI
The target of experiment [2] is T1, Cathepsin K (Homo sapiens, UniProt P43235).
T1 sequence (P43235 115-329): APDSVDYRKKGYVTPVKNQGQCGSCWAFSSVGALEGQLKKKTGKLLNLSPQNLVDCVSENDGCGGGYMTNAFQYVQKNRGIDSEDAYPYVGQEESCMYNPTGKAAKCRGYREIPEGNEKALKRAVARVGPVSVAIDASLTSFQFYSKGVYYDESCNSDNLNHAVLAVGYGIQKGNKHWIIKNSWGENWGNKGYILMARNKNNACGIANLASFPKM
Put plainly: Cathepsin K inhibition, fluorogenic peptide substrate kinetic assay (selectivity). To be noted: ratio of cathepsin K inhibition constant to cathepsin S inhibition constant.

In experiment [3] the target is Cathepsin L (Homo sapiens, UniProt P07711). Put plainly: Cathepsin L inhibition, fluorogenic peptide substrate kinetic assay (selectivity). Conditions: ratio of cathepsin L inhibition constant to cathepsin S inhibition constant.
Sequence of Cathepsin L (P07711 114-333, species assumed): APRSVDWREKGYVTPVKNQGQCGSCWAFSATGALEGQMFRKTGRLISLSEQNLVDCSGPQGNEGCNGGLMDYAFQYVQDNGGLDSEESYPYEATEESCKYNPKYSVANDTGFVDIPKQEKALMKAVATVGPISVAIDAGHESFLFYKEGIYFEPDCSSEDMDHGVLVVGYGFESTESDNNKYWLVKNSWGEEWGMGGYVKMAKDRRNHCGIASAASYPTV
Experiment [4] has as its target Cathepsin B (Homo sapiens, UniProt P07858). The experiment in a line: Cathepsin B inhibition, fluorogenic peptide substrate kinetic assay (selectivity).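 Also: value is the cathepsin B inhibition constant divided by the cathepsin S one, each from kinetic fluorescence readings (ex 380 nm, em 450 nm) of a 10 µM coumarin peptide substrate.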 Conditions: ratio of cathepsin B inhibition constant to cathepsin S inhibition constant.
Where [5] appears, read: Cathepsin S inhibition constant, pH5.5, 20 minutes preincubation at room temperature, read-out: Ki Cat. S.

Turning to `Cc1ccc([C@H](CC(=O)N2CCOCC2)C(=O)N[C@H](CNc2ccc(OC(F)(F)F)cc2)C(C)C)cc1` [Example 57, N-{2-Methyl-1-(S)-[(4-trifluoromethoxy-phenylamino)-methyl]-propyl}-4-morpholin-4-yl-4-oxo-2-(S)-p-tolyl-butyramide], in experiment [1], the Ki lay in the range of 100 to 1000 nM. In experiment [2], the “Selectivity for Cat. S over Cat. K” value is recorded as “++ (++, >100)”. The “Selectivity for Cat. S over Cat. L” value in experiment [3] is “++ (++, >100)”. For the same compound, the “Selectivity for Cat. S over Cat. B” value in experiment [4] is recorded as “++ (++, >100)”.
`C[C@@H](CN1c2ccc(F)cc2CC1(C)C)NC(=O)O[C@@H](CC1CCCCC1)C(=O)N1CCSCC1` [Example 96, [2-(5-Fluoro-2,2-dimethyl-2,3-dihydro-indol-1-yl)-1-(S)-methyl-ethyl]-carbamic acid 1-(S)-cyclohexylmethyl-2-oxo-2-thiomorpholin-4-yl-ethyl ester]: the Ki in experiment [1] (setting [5]) lay in the range of 1000 to 10000 nM. Moreover, in experiment [2], the “Selectivity for Cat. S over Cat. K” value was “+ (+, >10)”. In addition, the “Selectivity for Cat. S over Cat. L” value in experiment [3] is “+ (+, >10)”. Besides, the “Selectivity for Cat. S over Cat. B” value in experiment [4] is given as “+ (+, >10)”.
In experiment [1], `CC(C)[C@@H](CNc1ccc(OC(F)(F)F)cc1)NC(=O)[C@H](CC(=O)N1CCOCC1)c1ccc(Cl)cc1` [Example 43, 2-(R)-(4-Chloro-phenyl)-N-{2-methyl-1-(S)-[(4-trifluoromethoxy-phenylamino)-methyl]-propyl}-4-morpholin-4-yl-4-oxo-butyramide] showed a Ki of 100 to 1000 nM. For the same compound, in experiment [2], the “Selectivity for Cat. S over Cat. K” value is given as “++ (++, >100)”. Further, the “Selectivity for Cat. S over Cat. L” value in experiment [3] was “++ (++, >100)”. The “Selectivity for Cat. S over Cat. B” value in experiment [4] is listed as “++ (++, >100)”.
Regarding `CC(C)[C@@H](CN1CC(C)(C)c2cc(F)ccc21)NC(=O)[C@@H](CC(=O)N1CCOCC1)c1ccc(C(F)(F)F)cc1` [Example 68, N-[1-(S)-(5-Fluoro-3,3-dimethyl-2,3-dihydro-indol-1-ylmethyl)-2-methyl-propyl]-4-morpholin-4-yl-4-oxo-2-(S)-(4-trifluoromethyl-phenyl)-butyramide], the Ki in experiment [1] (setting [5]) is below 100 nM. The “Selectivity for Cat. S over Cat. K” value in experiment [2] is “++ (++, >100)”. The “Selectivity for Cat. S over Cat. L” value in experiment [3] is given as “+++ (+++, >1000)”. Besides, the “Selectivity for Cat. S over Cat. B” value in experiment [4] was “+++ (+++, >1000)”.
For the compound `CC(C)[C@@H](CNc1cccc(S(C)(=O)=O)c1)NC(=O)[C@@H](CC(=O)N1CCOCC1)c1ccc(F)cc1` [Example 67, 2-(S)-(4-Fluoro-phenyl)-N-{1-(S)-[(3-methanesulfonyl-phenylamino)-methyl]-2-methyl-propyl}-4-morpholin-4-yl-4-oxo-butyramide], the Ki in experiment [1] (setting [5]) was in the range of 1000 to 10000 nM. For the same compound, the “Selectivity for Cat. S over Cat. K” value in experiment [2] is “+ (+, >10)”. For the same compound, the “Selectivity for Cat. S over Cat. L” value in experiment [3] is recorded as “+ (+, >10)”. The “Selectivity for Cat. S over Cat. B” value in experiment [4] is on record as “+ (+, >10)”.
For `C[C@@H](CN1CCc2cc(F)ccc21)NC(=O)[C@@H](CC(=O)N1CCOCC1)CC1CCCCC1` [Example 8, 2-(R)-Cyclohexylmethyl-N-[2-(5-fluoro-2,3-dihydro-indol-1-yl)-1-(S)-methyl-ethyl]-4-morpholin-4-yl-4-oxo-butyramide], the Ki in experiment [1] (setting [5]) was below 100 nM. Besides, the “Selectivity for Cat. S over Cat. K” value in experiment [2] is given as “++ (++, >100)”. Further, the “Selectivity for Cat. S over Cat. L” value in experiment [3] is reported as “++ (++, >100)”. Besides, the “Selectivity for Cat. S over Cat. B” value in experiment [4] is on record as “+++ (+++, >1000)”.
As for `CC(C)[C@@H](CNc1ccc(OC(F)(F)F)cc1)NC(=O)[C@@H](CC(=O)N1CCOCC1)c1ccc(Cl)cc1` [Example 42, 2-(S)-(4-Chloro-phenyl)-N-{2-methyl-1-(S)-[(4-trifluoromethoxy-phenylamino)-methyl]-propyl}-4-morpholin-4-yl-4-oxo-butyramide], in experiment [1], the Ki is below 100 nM. Besides, the “Selectivity for Cat. S over Cat. K” value in experiment [2] was “+++ (+++, >1000)”. For the same compound, the “Selectivity for Cat. S over Cat. L” value in experiment [3] was “++ (++, >100)”. Besides, the “Selectivity for Cat. S over Cat. B” value in experiment [4] is “+++ (+++, >1000)”.
On to `C[C@@H](CN1CC(C)(C)c2cc(F)ccc21)NC(=O)[C@@H](CC(=O)N1CCOCC1)CC1CCCCC1` [Example 54, 2-(R)-Cyclohexylmethyl-N-[2-(5-fluoro-3,3-dimethyl-2,3-dihydro-indol-1-yl)-1-(S)-methyl-ethyl]-4-morpholin-4-yl-4-oxo-butyramide], for which the Ki in experiment [1] (setting [5]) is below 100 nM. The “Selectivity for Cat. S over Cat. K” value in experiment [2] is recorded as “+++ (+++, >1000)”. Further, in experiment [3], the “Selectivity for Cat. S over Cat. L” value is listed as “++ (++, >100)”. Further, in experiment [4], the “Selectivity for Cat. S over Cat. B” value is “+++ (+++, >1000)”.
In experiment [1], `CC[C@@H](CNc1ccc(OC(F)(F)F)cc1)NC(=O)[C@@H](CC(=O)N1CCOCC1)CC1CCCCC1` [Example 22, 2-(R)-Cyclohexylmethyl-4-morpholin-4-yl-4-oxo-N-{1-(S)-[(4-trifluoromethoxy-phenylamino)-methyl]-propyl}-butyramide] returned a Ki below 100 nM. For the same compound, in experiment [2], the “Selectivity for Cat. S over Cat. K” value was “+ (+, >10)”. The “Selectivity for Cat. S over Cat. L” value in experiment [3] is “+ (+, >10)”. Besides, the “Selectivity for Cat. S over Cat. B” value in experiment [4] is listed as “+++ (+++, >1000)”.
Turning to `O=C(NCCNc1ccc(F)cc1)[C@H](CC1CCCCC1)NC(=O)N1CCOCC1` [Example 3, Morpholine-4-carboxylic acid {2-cyclohexyl-1-(S)-[2-(4-fluoro-phenylamino)-ethylcarbamoyl]-ethyl}-amide], the Ki in experiment [1] (setting [5]) is below 100 nM. Moreover, in experiment [2], the “Selectivity for Cat. S over Cat. K” value is on record as “++ (++, >100)”. For the same compound, in experiment [3], the “Selectivity for Cat. S over Cat. L” value was “+ (+, >10)”. Also, the “Selectivity for Cat. S over Cat. B” value in experiment [4] is “++ (++, >100)”.
Regarding `O=C(N[C@H](CNc1ccc(OC(F)(F)F)cc1)c1ccccc1)[C@H](CCC1CCCC1)CC(=O)N1CCOCC1` [Example 46, 2-(R)-(2-Cyclopentyl-ethyl)-4-morpholin-4-yl-4-oxo-N-[1-(S)-phenyl-2-(4-trifluoromethoxy-phenylamino)-ethyl]-butyramide], in experiment [1] (setting [5]), the Ki was below 100 nM. Besides, the “Selectivity for Cat. S over Cat. K” value in experiment [2] is “+++ (+++, >1000)”. For the same compound, the “Selectivity for Cat. S over Cat. L” value in experiment [3] is reported as “++ (++, >100)”. In addition, the “Selectivity for Cat. S over Cat. B” value in experiment [4] is “+++ (+++, >1000)”.
With `CC(=O)NS(=O)(=O)c1ccc(NC[C@H](C)NC(=O)O[C@@H](CC2CCCCC2)C(=O)N2CCOCC2)cc1` [Example 89, [2-(4-Acetylsulfamoyl-phenylamino)-1-(S)-methyl-ethyl]-carbamic acid 1-(S)-cyclohexylmethyl-2-morpholin-4-yl-2-oxo-ethyl ester], in experiment [1] (setting [5]), the Ki lay in the range of 1000 to 10000 nM. Moreover, the “Selectivity for Cat. S over Cat. K” value in experiment [2] is on record as “+ (+, >10)”. Besides, in experiment [3], the “Selectivity for Cat. S over Cat. L” value is “+ (+, >10)”. The “Selectivity for Cat. S over Cat. B” value in experiment [4] is on record as “+ (+, >10)”.
For the compound `CC1(C)CN(C[C@@H](NC(=O)[C@@H](CC(=O)N2CCOCC2)c2ccc(C(F)(F)F)cc2)C2CC2)c2ccc(F)cc21` [Example 69, N-[1-(S)-Cyclopropyl-2-(5-fluoro-3,3-dimethyl-2,3-dihydro-indol-1-yl)-ethyl]-4-morpholin-4-yl-4-oxo-2-(S)-(4-trifluoromethyl-phenyl)-butyramide], the Ki in experiment [1] (setting [5]) lay within 100 to 1000 nM. In experiment [2], the “Selectivity for Cat. S over Cat. K” value is listed as “+ (+, >10)”. The “Selectivity for Cat. S over Cat. L” value in experiment [3] is given as “++ (++, >100)”. Besides, the “Selectivity for Cat. S over Cat. B” value in experiment [4] was “++ (++, >100)”.
